# From PubChem BioAssay (NCI)
# “And” between values parts separate entries of the source, which are not always exact repeats. Identical values can stand only once.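 Protocol summary: plate cells (96-well), add compound at 5 concentrations, incubate 48 h, interpolate endpoints linearly. Here, GI50 denotes the concentration required for 50% inhibition of growth. The concentration for full growth arrest is given as TGI.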
# Columns and labels:
# Experiment in all cases: NCI-60 cell line screen, 48 h
# HCT-116 colon = test system: HCT-116 colon
# K-562 leukemia = test system: K-562 leukemia
# MDA-MB-435 = test system: MDA-MB-435
# HT29 colon = test system: HT29 colon
# DU-145 prostate = test system: DU-145 prostate
# U251 CNS = test system: U251 CNS
# CAKI-1 renal = test system: CAKI-1 renal
# UACC-62 melanoma = test system: UACC-62 melanoma
# CCRF-CEM leukemia = test system: CCRF-CEM leukemia
# HOP-62 NSCLC = test system: HOP-62 NSCLC
structure (smiles),measurement,setting,value
Cc1ccc(S(=O)(=O)Oc2nc3ccccc3nc2OS(=O)(=O)c2ccc(C)cc2)cc1,TGI,HCT-116 colon,> 100 µM
same,TGI,K-562 leukemia,> 100 µM
same,TGI,MDA-MB-435,> 100 µM
same,TGI,HT29 colon,> 100 µM
same,TGI,DU-145 prostate,> 100 µM
same,TGI,U251 CNS,> 100 µM
same,TGI,CAKI-1 renal,82.4 µM
same,TGI,UACC-62 melanoma,> 100 µM
same,TGI,CCRF-CEM leukemia,> 100 µM
COC1CC(COCc2ccccc2)CC(OC)O1 (configuration not stated),TGI,HCT-116 colon,> 100 µM
same,TGI,K-562 leukemia,> 100 µM
same,TGI,MDA-MB-435,> 100 µM
same,TGI,HT29 colon,> 100 µM
same,TGI,DU-145 prostate,> 100 µM
same,TGI,CAKI-1 renal,> 100 µM
same,TGI,UACC-62 melanoma,> 100 µM
same,TGI,CCRF-CEM leukemia,0.44 µM
same,TGI,HOP-62 NSCLC,> 100 µM
CC(=O)Nc1ccc2c3c(cc(O)c2c1)N(C(=O)CCCCCCC(=O)N1CC(CCl)c2c1cc(O)c1cc(NC(C)=O)ccc21)CC3CCl (configuration not stated),TGI,K-562 leukemia,> 100 µM
same,TGI,MDA-MB-435,0.0604 µM
same,TGI,HT29 colon,> 100 µM
same,TGI,DU-145 prostate,< 0.01 µM
same,TGI,CAKI-1 renal,0.894 µM
same,TGI,UACC-62 melanoma,0.013 µM
CCC(=O)Nc1ccc(NC(C#N)c2cccc(Oc3ccccc3)c2)cc1 (configuration not stated),TGI,HCT-116 colon,> 100 µM
same,TGI,K-562 leukemia,> 100 µM
same,TGI,MDA-MB-435,> 100 µM
same,TGI,HT29 colon,> 100 µM
same,TGI,DU-145 prostate,> 100 µM
same,TGI,CAKI-1 renal,> 100 µM
same,TGI,UACC-62 melanoma,> 100 µM
same,TGI,CCRF-CEM leukemia,> 100 µM
same,TGI,HOP-62 NSCLC,> 100 µM
Cc1cc(/C=C/c2cc[n+](C)c3ccccc23)c(O)c2ncccc12,TGI,HCT-116 colon,7.34 µM
same,TGI,K-562 leukemia,13.7 µM
same,TGI,HT29 colon,14.6 µM
same,TGI,U251 CNS,13.5 µM
same,TGI,CAKI-1 renal,27.6 µM
same,TGI,UACC-62 melanoma,9.19 µM
same,TGI,CCRF-CEM leukemia,> 37.7 µM
same,TGI,HOP-62 NSCLC,15 µM
N#Cc1c(N2CCC(O)C2)c2ccccc2n2c1nc1ccccc12 (configuration not stated),TGI,HCT-116 colon,> 100 µM
same,TGI,MDA-MB-435,> 100 µM
same,TGI,HT29 colon,> 100 µM
same,TGI,DU-145 prostate,> 100 µM
same,TGI,CAKI-1 renal,> 100 µM
same,TGI,UACC-62 melanoma,> 100 µM
same,TGI,CCRF-CEM leukemia,> 100 µM
same,TGI,HOP-62 NSCLC,46.6 µM
O=C(Nc1ccc2[nH]c(C(=O)N3CC(CCl)c4c3cc([N+](=O)[O-])c3ccccc43)cc2c1)Nc1ccc2[nH]c(C(=O)N3CC(CCl)c4c3cc([N+](=O)[O-])c3ccccc43)cc2c1 (configuration not stated),TGI,HCT-116 colon,> 100 µM
same,TGI,MDA-MB-435,> 100 µM
same,TGI,DU-145 prostate,> 100 µM
same,TGI,U251 CNS,> 100 µM
same,TGI,CAKI-1 renal,> 100 µM
same,TGI,UACC-62 melanoma,> 100 µM
same,TGI,CCRF-CEM leukemia,36.9 µM
same,TGI,HOP-62 NSCLC,> 100 µM
CCOc1ccc(N/C(=C(/C(Cl)=C(/Cl)N2CCCCC2)[N+](=O)[O-])n2nnc3ccccc32)cc1,TGI,HCT-116 colon,37.7 µM
same,TGI,K-562 leukemia,> 100 µM
same,TGI,MDA-MB-435,32.3 µM
same,TGI,DU-145 prostate,82.4 µM
same,TGI,U251 CNS,30.8 µM
same,TGI,CAKI-1 renal,28.4 µM
same,TGI,UACC-62 melanoma,31.6 µM
same,TGI,HOP-62 NSCLC,42.6 µM
COC1C(O)C(n2ncc3c(SC)nc(SC)nc32)OC1C(O)CO (configuration not stated),TGI,HCT-116 colon,> 100 µM
same,TGI,K-562 leukemia,> 100 µM
same,TGI,HT29 colon,> 100 µM
same,TGI,U251 CNS,> 100 µM
same,TGI,UACC-62 melanoma,> 100 µM
same,TGI,CCRF-CEM leukemia,> 100 µM
same,TGI,HOP-62 NSCLC,> 100 µM
Nc1nc2ncc(CNc3ccc(C(=O)NC(CCC(=O)O)C(=O)O)cc3)nc2c(=O)[nH]1 (configuration not stated),TGI,K-562 leukemia,> 100 µM
same,TGI,MDA-MB-435,> 100 µM
same,TGI,HT29 colon,> 100 µM
same,TGI,U251 CNS,> 100 µM
same,TGI,UACC-62 melanoma,> 100 µM
same,TGI,CCRF-CEM leukemia,> 100 µM
same,TGI,HOP-62 NSCLC,> 100 µM
CCOC(=O)C1c2[nH]c3ccccc3c2CCN1C(=O)c1ccc(OC)o1 (configuration not stated),TGI,K-562 leukemia,> 10 µM
same,TGI,MDA-MB-435,> 10 µM
same,TGI,HT29 colon,> 10 µM
same,TGI,DU-145 prostate,> 10 µM
same,TGI,U251 CNS,> 10 µM
same,TGI,CAKI-1 renal,> 10 µM
same,TGI,CCRF-CEM leukemia,> 10 µM
same,TGI,HOP-62 NSCLC,> 10 µM
COc1ccc(C2SCC(=O)N2NC(=O)c2ccc(NC(C)=O)cc2)c(OC)c1 (configuration not stated),TGI,HCT-116 colon,> 100 µM
same,TGI,K-562 leukemia,> 100 µM
same,TGI,MDA-MB-435,> 100 µM
same,TGI,HT29 colon,> 100 µM
same,TGI,DU-145 prostate,> 100 µM
same,TGI,U251 CNS,> 100 µM
same,TGI,UACC-62 melanoma,> 100 µM
same,TGI,HOP-62 NSCLC,> 100 µM
Cc1c(N2CCN(C)CC2)nc2ccc(Cl)cc2c1-c1ccccc1,TGI,HCT-116 colon,40 µM
same,TGI,K-562 leukemia,35.7 µM
same,TGI,HT29 colon,27.7 µM
same,TGI,U251 CNS,33.1 µM
same,TGI,CAKI-1 renal,41.6 µM
same,TGI,UACC-62 melanoma,30.3 µM
same,TGI,CCRF-CEM leukemia,42.2 µM
same,TGI,HOP-62 NSCLC,36.6 µM
CC(C)NC(=O)N(Nc1ccccc1)C(C)(C)C,TGI,HCT-116 colon,> 100 µM
same,TGI,K-562 leukemia,> 100 µM
same,TGI,HT29 colon,> 100 µM
same,TGI,U251 CNS,> 100 µM
same,TGI,CAKI-1 renal,> 100 µM
same,TGI,UACC-62 melanoma,> 100 µM
same,TGI,CCRF-CEM leukemia,> 100 µM
same,TGI,HOP-62 NSCLC,> 100 µM
CC(C)NC(=O)OCc1c(CO)c2c(n1C)-c1ccccc1CC2,TGI,HCT-116 colon,34 µM
same,TGI,K-562 leukemia,46 µM
same,TGI,HT29 colon,54.5 µM
same,TGI,U251 CNS,> 61.4 µM
same,TGI,CAKI-1 renal,29.7 µM
same,TGI,UACC-62 melanoma,36.6 µM
same,TGI,CCRF-CEM leukemia,45.2 µM
same,TGI,HOP-62 NSCLC,> 93.3 µM
CC(=O)OCC1OC(n2c(-c3ccccc3)c(C(C)=O)c(-c3cccc4ccccc34)c(C#N)c2=S)C(OC(C)=O)C(OC(C)=O)C1OC(C)=O (configuration not stated),TGI,HCT-116 colon,> 100 µM
same,TGI,K-562 leukemia,> 100 µM
same,TGI,MDA-MB-435,> 100 µM
same,TGI,HT29 colon,> 100 µM
same,TGI,DU-145 prostate,> 100 µM
same,TGI,U251 CNS,> 100 µM
same,GI50,UACC-62 melanoma,80.4 µM and 26.7 µM
same,TGI,UACC-62 melanoma,> 100 µM
same,TGI,CCRF-CEM leukemia,> 100 µM
same,TGI,HOP-62 NSCLC,> 100 µM
C/C(CC(=O)Nc1ccc(C)c(C)c1)=N\NC(N)=O,TGI,HCT-116 colon,> 100 µM
same,TGI,K-562 leukemia,> 100 µM
same,TGI,HT29 colon,> 100 µM
same,TGI,U251 CNS,> 100 µM
same,TGI,UACC-62 melanoma,> 100 µM
same,TGI,CCRF-CEM leukemia,> 100 µM
same,TGI,HOP-62 NSCLC,> 100 µM
CCCCCCCCCCCCCCCCCCNC(=S)/N=C\C1=C(O)c2ccccc2C1=O,TGI,HCT-116 colon,15.3 µM
same,TGI,MDA-MB-435,30.9 µM
same,TGI,HT29 colon,25 µM
same,TGI,DU-145 prostate,19.2 µM
same,TGI,U251 CNS,18.3 µM
same,TGI,CAKI-1 renal,31.2 µM
same,TGI,CCRF-CEM leukemia,21.5 µM
same,TGI,HOP-62 NSCLC,22.2 µM
CC(=O)Nc1c(C)cc2c(nc3n2CCC3OC(C)=O)c1[N+](=O)[O-] (configuration not stated),TGI,HCT-116 colon,> 100 µM
same,TGI,K-562 leukemia,> 100 µM
same,TGI,MDA-MB-435,> 100 µM
same,TGI,HT29 colon,> 100 µM
same,TGI,DU-145 prostate,> 100 µM
same,TGI,U251 CNS,> 100 µM
same,TGI,CAKI-1 renal,> 100 µM
same,TGI,UACC-62 melanoma,> 100 µM
same,TGI,CCRF-CEM leukemia,> 100 µM
COc1ccccc1-c1cc(=O)c2cc3c(cc2[nH]1)OCO3,TGI,HCT-116 colon,> 100 µM
same,TGI,K-562 leukemia,> 100 µM
same,TGI,HT29 colon,> 100 µM
same,TGI,U251 CNS,> 100 µM
same,TGI,UACC-62 melanoma,> 100 µM
same,TGI,CCRF-CEM leukemia,> 100 µM
same,TGI,HOP-62 NSCLC,> 100 µM
C/C(CC(O)(/C=N/O)c1ccccc1)=N/O (configuration not stated),TGI,HCT-116 colon,> 100 µM
same,TGI,K-562 leukemia,> 100 µM
same,TGI,MDA-MB-435,> 100 µM
same,TGI,HT29 colon,> 100 µM
same,TGI,U251 CNS,> 100 µM
same,TGI,CAKI-1 renal,> 100 µM
same,TGI,CCRF-CEM leukemia,> 100 µM
same,TGI,HOP-62 NSCLC,> 100 µM
O=c1c(Br)cc2nc3ccccc3sc-2c1Br,TGI,HCT-116 colon,> 100 µM
same,TGI,K-562 leukemia,55.5 µM
same,TGI,HT29 colon,> 100 µM
same,TGI,U251 CNS,> 100 µM
same,TGI,CAKI-1 renal,> 100 µM
same,TGI,UACC-62 melanoma,79.8 µM
same,TGI,CCRF-CEM leukemia,> 100 µM
same,TGI,HOP-62 NSCLC,> 100 µM
O=C(CN1CCOCC1)c1ccc2c(c1)oc(=O)n2CCN1CCOCC1,TGI,HCT-116 colon,> 100 µM
same,TGI,K-562 leukemia,> 100 µM
same,TGI,MDA-MB-435,> 100 µM
same,TGI,HT29 colon,> 100 µM
same,TGI,DU-145 prostate,> 100 µM
same,TGI,U251 CNS,> 100 µM
same,TGI,CAKI-1 renal,> 100 µM
same,TGI,CCRF-CEM leukemia,> 100 µM
same,TGI,HOP-62 NSCLC,> 100 µM
[N-]=[N+]=NC(c1cn(C2CC(O)C(CO)O2)c(=O)[nH]c1=O)C(Cl)I (configuration not stated),TGI,HCT-116 colon,> 100 µM
same,TGI,MDA-MB-435,> 100 µM
same,TGI,HT29 colon,> 100 µM
same,TGI,DU-145 prostate,> 100 µM
same,TGI,U251 CNS,> 100 µM
same,TGI,UACC-62 melanoma,> 100 µM
same,TGI,HOP-62 NSCLC,> 100 µM
